Earlier results on one molecule are cited in patent US11478522B2, “Synergistic herbal compositions with prebiotic properties for treatment of acne” (KAMEDIS LTD., priority 2016, dated 2022).

The target in one series is NLRP3 inflammasome (Homo sapiens, UniProt Q96P20).
The target in another series is enzyme 11β-HSD1 (Homo sapiens, UniProt P28845).
Sequence of enzyme 11β-HSD1 (P28845 whole entry, species assumed): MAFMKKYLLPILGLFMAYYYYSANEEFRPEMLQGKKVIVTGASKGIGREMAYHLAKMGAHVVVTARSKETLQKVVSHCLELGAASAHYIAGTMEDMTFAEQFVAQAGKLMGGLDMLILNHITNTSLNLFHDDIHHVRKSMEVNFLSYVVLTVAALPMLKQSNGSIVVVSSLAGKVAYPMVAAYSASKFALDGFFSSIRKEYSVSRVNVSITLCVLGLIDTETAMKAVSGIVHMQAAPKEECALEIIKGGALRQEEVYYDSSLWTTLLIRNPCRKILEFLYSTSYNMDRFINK

Sequence of NLRP3 inflammasome (Q96P20 whole entry): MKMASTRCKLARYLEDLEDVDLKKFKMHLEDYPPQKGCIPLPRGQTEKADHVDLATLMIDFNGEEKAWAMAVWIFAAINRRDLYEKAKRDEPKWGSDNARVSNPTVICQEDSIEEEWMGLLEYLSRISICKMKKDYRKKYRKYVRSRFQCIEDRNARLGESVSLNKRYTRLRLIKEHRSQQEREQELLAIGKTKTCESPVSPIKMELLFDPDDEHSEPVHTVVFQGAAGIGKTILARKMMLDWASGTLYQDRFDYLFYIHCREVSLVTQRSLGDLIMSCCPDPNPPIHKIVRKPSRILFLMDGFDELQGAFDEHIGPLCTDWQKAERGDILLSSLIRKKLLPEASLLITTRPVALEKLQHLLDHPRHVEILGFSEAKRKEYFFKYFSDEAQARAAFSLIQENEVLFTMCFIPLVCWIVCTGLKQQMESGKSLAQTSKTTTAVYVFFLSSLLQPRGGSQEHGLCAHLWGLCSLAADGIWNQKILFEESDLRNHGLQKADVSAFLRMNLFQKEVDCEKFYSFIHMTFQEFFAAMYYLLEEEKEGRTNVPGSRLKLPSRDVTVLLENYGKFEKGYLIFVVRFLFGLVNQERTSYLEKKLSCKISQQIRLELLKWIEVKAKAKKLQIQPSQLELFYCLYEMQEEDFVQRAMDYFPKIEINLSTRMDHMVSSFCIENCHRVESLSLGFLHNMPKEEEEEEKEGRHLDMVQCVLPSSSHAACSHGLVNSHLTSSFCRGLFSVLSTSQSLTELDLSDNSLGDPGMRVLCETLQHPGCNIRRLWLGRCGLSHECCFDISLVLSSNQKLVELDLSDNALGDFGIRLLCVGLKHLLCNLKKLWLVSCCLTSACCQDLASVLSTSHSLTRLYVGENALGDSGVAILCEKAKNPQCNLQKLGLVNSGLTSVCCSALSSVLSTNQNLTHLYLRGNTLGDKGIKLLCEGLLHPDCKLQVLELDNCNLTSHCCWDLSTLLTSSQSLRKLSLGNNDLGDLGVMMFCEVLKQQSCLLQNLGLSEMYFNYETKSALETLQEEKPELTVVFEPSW

Take `Cc1cc(O)c2c(c1)C(=O)c1cc(O)cc(O)c1C2=O` [emodin]: on NLRP3 inflammasome, the NLRP3 inflammasome activation result is listed as “attenuate NLRP3 inflammasome activation”. The “inhibition of the enzyme 11β-HSD1” value on enzyme 11β-HSD1 was “effective and selective as inhibitors”.
